Experimental data as given in US20220213030A1, “AMINOGUANIDINE HYDRAZONES AS RETROMER STABILIZERS USEFUL FOR TREATING NEUROLOGICAL DISEASES” (OSPEDALE SAN RAFFAELE SRL, priority 2019, published 2022).

Biological target: VPS35 (Mus musculus, UniProt Q9EQH3+Q9QZ88)
Assay: VPS35 western blot in spinal cord extracts of G93A mice
Type: in vivo
Details: 10 mg/kg, day 100
Protocol: Lumbar spinal cords were dissected from saline perfused mice and rapidly homogenized in the following lysis buffer: Tris-HCl 10 mM pH 8, EDTA pH 8 1 mM, NaCl 100 mM, NP40 1% and protease inhibitor cocktail (Sigma). Protein extracts were obtained using a tight-fitting glass Potter tissue grinder (1 ml; Wheaton) and then sonicated at a frequency of 20 kHz (10 times-1s). Protein lysates from cells cultures were obtained from plates receiving PBS1× washing and subsequently the lysis buffer followed by sonication. Protein concentrations were measured by BCA protein assay kit (Thermofisher) according to the manufacturer's recommendations. Ten μg of protein extract was loaded on 10% Mini-PROTEAN TGX Stain-Free precast gels for PAGE (Bio-Rad). Gel electrophoresis was performed at 100 V for 2 hours. Gels were transferred on Immobilon®-P PVDF membrane according to the manufacturer's instructions (Millipore). Blots were blocked in 5% BSA in Tris buffered saline plus 0.1% Tween-20 (TBS-T) for 1 hour before receiving primary antibodies: goat α-VPS35 1:800 (ab10099, Abcam); rabbit α-VPS26b 1:1000 (15915-1-AP, ProteinTech); rabbit α-VPS29 1:1000 (ab236796 Abcam); mouse α-βActin 1:25000 (Sigma); mouse α-Golgin97 1:1000 (Invitrogen); mouse α-Ubiquitin 1:500 (Merk) overnight at 4° C. on shaker. […] Quantifications were done using the Image Lab 6.0.1 software (Bio-Rad).

N=C(N)NN=Cc1cccc(C=NNC(=N)N)c1 [Compound 2a, 1,3-Bis-amino guanidine phenyl hydrazone]
VPS35 levels in SC extracts (WB): increase VPS35 and VPS26b levels
